Laboratory results as given in patent US20250340574A1, “MODULATORS OF CYSTIC FIBROSIS TRANSMEMBRANE CONDUCTANCE REGULATOR” (Vertex Pharmaceuticals Incorporated, priority 2022, published 2025).

Molecular target: T1, CFTR (F508del/MF-HBE cells) (Homo sapiens, UniProt P13569, DEL508-508)
T1 construct: human bronchial epithelial (HBE) cells derived from CF subjects heterozygous for F508del and a minimal function CFTR mutation (F508del/MF-HBE); endogenous in cells; host or cells: Primary human bronchial epithelial cells from CF subjects (F508del/MF genotype), differentiated at an air-liquid interface
Assay: Ussing chamber assay of CFTR-mediated short-circuit currents, Assay D (single concentration of 1 μM)
Assay type: cell-based
Conditions: with 44 nM potentiator and 18 μM Tezacaftor, 18-24 hours, 20% human serum
Protocol: Ussing chamber experiments were performed using human bronchial epithelial (HBE) cells derived from CF subjects heterozygous for F508del and a minimal function CFTR mutation (F508del/MF-HBE) and cultured as previously described (Neuberger T, Burton B, Clark H, Van Goor F Methods Mol Biol 2011:741:39-54). After four days the apical media was removed, and the cells were grown at an air liquid interface for >14 days prior to use.
To isolate the CFTR-mediated short-circuit (ISC) current, F508del/MF-HBE grown on Costar® Snapwell™ cell culture inserts were mounted in an Ussing chamber and the transepithelial ISC was measured under voltage-clamp recording conditions (Vhold=0 mV) at 37° C. The basolateral solution contained (in mM) 145 NaCl, 0.83 K2HPO4, 3.3 KH2PO4, 1.2 MgCl2, 1.2 CaCl2, 10 Glucose, 10 HEPES (pH adjusted to 7.4 with NaOH) and the apical solution contained (in mM) 145 NaGluconate, 1.2 MgCl2, 1.2 CaCl2, 10 glucose, 10 HEPES (pH adjusted to 7.4 with NaOH) and 30 μM amiloride to block the epithelial sodium channel. Forskolin (20 μM) was added to the apical surface to activate CFTR, followed by apical addition of a CFTR inhibitor cocktail consisting of BPO, GlyH-101, and CFTR inhibitor 172 (each at 20 μM final assay concentration) to specifically isolate CFTR currents. The CFTR-mediated ISC (μA/cm^2) for each condition was determined from the peak forskolin response to the steady-state current following inhibition.
The activity of the CFTR corrector compounds on the CFTR-mediated ISC was determined in Ussing chamber studies as described above. The F508del/MF-HBE cell cultures were either incubated with the corrector compounds at a range of concentrations in combination with 33 nM (6R,12R)-17-amino-12-methyl-6,15-bis(trifluoromethyl)-13,19-dioxa-3,4,18-triazatricyclo[12.3.1.12,5]nonadeca-1(18),2,4,14,16-pentaen-6-ol and 18 μM Tezacaftor or were incubated with the corrector compounds at a single fixed concentration of 1 μM in combination with 44 nM (6R,12R)-17-amino-12-methyl-6,15-bis(trifluoromethyl)-13,19-dioxa-3,4,18-triazatricyclo[12.3.1.12,5]nonadeca-1(18),2,4,14,16-pentaen-6-ol and 18 μM Tezacaftor for 18-24 hours at 37° C. and in the presence of 20% human serum. The concentration of corrector compounds with 44 nM or 33 nM (6R,12R)-17-amino-12-methyl-6,15-bis(trifluoromethyl)-13,19-dioxa-3,4,18-triazatricyclo[12.3.1.12,5]nonadeca-1(18),2,4,14,16-pentaen-6-ol and 18 μM Tezacaftor during the 18-24 hours incubations was kept constant throughout the Ussing chamber measurement of the CFTR-mediated ISC to ensure compounds were present throughout the entire experiment. The efficacy and potency of the putative F508del correctors was compared to that of the known Vertex corrector, (14S)-8-[3-(2-{Dispiro[2.0.2.1]heptan-7-yl}ethoxy)-1H-pyrazol-1-yl]-12,12-dimethyl-2λ^6-thia-3,9,11,18,23-pentaazatetracyclo[17.3.1.111,14.05,10]tetracosa-1(22),5,7,9,19(23),20-hexaene-2,2,4-trione, in combination with 18 μM Tezacaftor and 1 μM Ivacaftor.
• Assay A: 0.1 μM to 25 μM, 6 concentrations • Assay B: 0.00001 μM to 25 μM, 12 concentrations • Assay C: 0.026 μM to 25 μM, 6 concentrations • Assay D: Activity at single concentration of 1 μM

T1 sequence (P13569 with tags, fused parts or gaps DEL508-508): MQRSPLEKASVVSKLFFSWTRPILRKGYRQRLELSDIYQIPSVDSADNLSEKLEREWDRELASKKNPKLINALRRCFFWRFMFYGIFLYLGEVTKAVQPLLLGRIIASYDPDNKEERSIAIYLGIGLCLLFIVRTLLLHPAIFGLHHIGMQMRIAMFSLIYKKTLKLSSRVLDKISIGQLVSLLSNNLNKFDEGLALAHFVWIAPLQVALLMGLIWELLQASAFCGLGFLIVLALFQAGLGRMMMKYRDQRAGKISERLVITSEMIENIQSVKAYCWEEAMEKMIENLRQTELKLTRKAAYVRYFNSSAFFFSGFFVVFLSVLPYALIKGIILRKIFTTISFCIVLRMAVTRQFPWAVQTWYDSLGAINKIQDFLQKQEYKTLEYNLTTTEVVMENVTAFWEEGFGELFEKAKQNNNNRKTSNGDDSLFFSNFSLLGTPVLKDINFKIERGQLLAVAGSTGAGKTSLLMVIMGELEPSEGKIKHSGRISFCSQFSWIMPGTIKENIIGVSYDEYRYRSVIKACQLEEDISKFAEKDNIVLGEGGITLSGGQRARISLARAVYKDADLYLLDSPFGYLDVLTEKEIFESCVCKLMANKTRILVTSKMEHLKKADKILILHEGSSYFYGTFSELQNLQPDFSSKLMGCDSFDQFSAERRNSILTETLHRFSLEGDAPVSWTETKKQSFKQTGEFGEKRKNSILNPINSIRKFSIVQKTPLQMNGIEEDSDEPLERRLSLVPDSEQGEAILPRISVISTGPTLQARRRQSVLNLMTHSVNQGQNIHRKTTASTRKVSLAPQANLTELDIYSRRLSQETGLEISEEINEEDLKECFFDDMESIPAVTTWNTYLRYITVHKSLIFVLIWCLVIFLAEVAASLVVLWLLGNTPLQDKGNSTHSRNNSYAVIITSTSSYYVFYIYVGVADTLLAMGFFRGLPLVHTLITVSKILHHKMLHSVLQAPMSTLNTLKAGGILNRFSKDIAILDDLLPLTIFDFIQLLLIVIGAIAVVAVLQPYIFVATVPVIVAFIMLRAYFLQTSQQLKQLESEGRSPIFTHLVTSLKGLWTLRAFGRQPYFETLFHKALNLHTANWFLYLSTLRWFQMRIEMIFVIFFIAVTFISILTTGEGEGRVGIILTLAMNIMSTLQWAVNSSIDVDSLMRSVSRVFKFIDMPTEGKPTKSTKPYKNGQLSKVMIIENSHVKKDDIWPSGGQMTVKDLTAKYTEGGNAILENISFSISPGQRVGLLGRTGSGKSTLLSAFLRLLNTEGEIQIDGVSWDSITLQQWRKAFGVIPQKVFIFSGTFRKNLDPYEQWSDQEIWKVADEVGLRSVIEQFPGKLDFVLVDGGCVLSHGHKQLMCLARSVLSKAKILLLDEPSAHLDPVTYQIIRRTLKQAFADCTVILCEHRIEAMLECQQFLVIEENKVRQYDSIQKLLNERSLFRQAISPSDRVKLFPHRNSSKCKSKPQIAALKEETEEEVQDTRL

D activity at 1 μM (%), +++ (+++ is >60%):
Cc1cccc(C)c1-c1cc2nc(n1)NS(=O)(=O)c1cccc(c1)C(=O)N(Cc1cnc3oc(C(C)C)cc3n1)C(CC(C)(C)C1CC1)CO2 (stereo not drawn) [Compound I-105]
Cc1cccc(C)c1-c1cc2nc(n1)NS(=O)(=O)c1cccc(c1)C(=O)N(Cc1nn(C(C)C)c3ccccc13)[C@H](CC(C)(C)C)CO2 [III-17]
Cc1cccc(C)c1-c1cc2nc(n1)NS(=O)(=O)c1cccc(c1)C(=O)N(Cc1cnc3oc(C(C)C)c(C(F)(F)F)c3n1)[C@H](CC13CC(C1)C3)CO2 [Compound I-114]
Cc1cccc(C)c1-c1cc2nc(n1)NS(=O)(=O)c1cccc(c1)C(=O)N(Cc1nc3c(cc(C(C)C)n3C)s1)[C@H](CC(C)(C)C)CO2 [III-20, (11R)-6-(2,6-dimethylphenyl)-11-(2,2-dimethylpropyl)-12-[(5-isopropyl-4-methyl-pyrrolo[2,3-d]thiazol-2-yl)methyl]-2,2-dioxo-9-oxa-2λ^6-thia-3,5,12,19-tetrazatricyclo[12.3.1.14,8]nonadeca-1(18),4(19),5,7,14,16-hexaen-13-one]
Cc1cccc(C)c1-c1nc2nc(c1C)OC[C@@H](CC13CC(C1)C3)N(Cc1cnc3oc(C(C)(C)C)cc3n1)C(=O)c1cccc(c1)S(=O)(=O)N2 [Compound I-223]
Cc1cccc(C)c1-c1cc2nc(n1)NS(=O)(=O)c1cccc(c1)C(=O)N(Cc1nc3cc(C4(C)CC4)oc3cc1F)[C@H](COC(C)C)CO2 [Compound I-253]
Cc1cccc(C)c1-c1cc2nc(n1)NS(=O)(=O)c1cccc(c1)C(=O)N(Cc1cn3cccc(C(C)C)c3n1)[C@H](CC(C)(C)C)CO2 [III-5, (11R)-6-(2,6-dimethylphenyl)-11-(2,2-dimethylpropyl)-12-[(8-isopropylimidazo[1,2-a]pyridin-2-yl)methyl]-2,2-dioxo-9-oxa-2λ^6-thia-3,5,12,19-tetrazatricyclo[12.3.1.14,8]nonadeca-1(18),4(19),5,7,14,16-hexaen-13-one]
Cc1cccc(C)c1-c1nc2nc(c1C)OC[C@@H](CC(C)(C)C)N(Cc1ccc3oc(C4(C)CC4)cc3n1)C(=O)c1cccc(c1)S(=O)(=O)N2 [Compound I-235]
Cc1cccc(C)c1-c1cc2nc(n1)NS(=O)(=O)c1cccc(c1)C(=O)N(Cc1cnc3oc(C(C)C)cc3n1)[C@H](CC(C)C)CCO2 [Compound I-5]
Cc1cccc(C)c1-c1cc2nc(n1)NS(=O)(=O)c1cccc(c1)C(=O)N(Cc1nc3cc(C(C)C)oc3nc1C(F)(F)F)[C@H](CC1(C)CC1)CO2 [Compound I-142]
Cc1cccc(C)c1-c1cc2nc(n1)NS(=O)(=O)c1cccc(c1)C(=O)N(Cc1cnc3oc(C4(C)CCC4)cc3n1)[C@H](COC(C)C)CO2 [Compound I-144]
Cc1cccc(C)c1-c1cc2nc(n1)NS(=O)(=O)c1cccc(c1)C(=O)N(Cc1nc3c(cc1F)nc(C(C)C)n3C)[C@H](COC(C)C)CO2 [Compound I-68]
Cc1cccc(C)c1-c1cc2nc(n1)NS(=O)(=O)c1cccc(c1)C(=O)N(Cc1cnc3oc(C(C)C)c(Cl)c3n1)[C@H](COC(C)C)CO2 [Compound I-162]
Cc1cccc(C)c1-c1cc2nc(n1)NS(=O)(=O)c1cccc(c1)C(=O)N(Cc1cnc3cc(C(C)C)n(C)c3n1)[C@H](Cc1ccccc1)CO2 [Compound I-190]
Cc1cccc(C)c1-c1cc2nc(n1)NS(=O)(=O)c1cccc(c1)C(=O)N(Cc1nc3cc(C(C)(C)C)oc3cc1F)[C@H](COC(C)C)CO2 [Compound I-242]
Cc1cccc(C)c1-c1cc2nc(n1)NS(=O)(=O)c1cccc(c1)C(=O)N(Cc1cnc3oc(C4CC4)cc3n1)[C@@H](C1CC(C)(C)C1)CO2 [Compound I-163]
Cc1cccc(C)c1-c1cc2nc(n1)NS(=O)(=O)c1cccc(c1)C(=O)N(Cc1cnc3oc(C4CC4)cc3n1)[C@H](COC1CC1)CO2 [Compound I-115]
Cc1cccc(C)c1-c1nc2nc(c1C)OC[C@@H](CC1(C)CC1)N(Cc1cnc3cc(C4(C)CC4)n(C)c3n1)C(=O)c1cccc(c1)S(=O)(=O)N2 [Compound I-230]
Cc1cccc(C)c1-c1cc2nc(n1)NS(=O)(=O)c1cccc(c1)C(=O)N(Cc1ccc3oc(C4(C)CC4)cc3n1)[C@H](CC1(C)CC1)CO2 [Compound I-226]
Cc1cccc(C)c1-c1cc2nc(n1)NS(=O)(=O)c1cccc(c1)C(=O)N(Cc1nc3c(cc1F)nc(C(C)C)n3C)[C@H](CC1(C)CC1)CO2 [Compound I-79]
Cc1cccc(C)c1-c1nc2nc(c1C)OC[C@@H](COC(C)C)N(Cc1cnc3oc(C4CC4)cc3n1)C(=O)c1cccc(c1)S(=O)(=O)N2 [Compound I-181]
Cc1cccc(C)c1-c1cc2nc(n1)NS(=O)(=O)c1cccc(c1)C(=O)N(Cc1cnc3oc(C(C)C)cc3n1)[C@H](CC(C)(C)C)CC2 [Compound I-173]
Cc1cccc(C)c1-c1cc2nc(n1)NS(=O)(=O)c1cccc(c1)C(=O)N(Cc1cnc3c(n1)C(=O)N(C(C)C)[C@@H]3C)[C@H](CC(C)(C)C)CO2 (stereo in doubt) [III-23]
Cc1cccc(C)c1-c1cc2nc(n1)NS(=O)(=O)c1cccc(c1)C(=O)N(Cc1cnc3oc(C(C)C)cc3n1)[C@H](C=C1CCC1)CO2 [Compound I-153]
Cc1cccc(C)c1-c1cc2nc(n1)NS(=O)(=O)c1cccc(c1)C(=O)N(Cc1cnc3oc(C(C)C)cc3n1)[C@H](CC1(C)CCC1)CO2 [Compound I-55]
Cc1cccc(C)c1-c1cc2nc(n1)NS(=O)(=O)c1cccc(c1)C(=O)N(Cc1cnc3oc(C(C)C)cc3n1)[C@H](C[C@@H]1CCCCO1)CO2 [Compound I-8]
Cc1cccc(C)c1-c1cc2nc(n1)NS(=O)(=O)c1cccc(c1)C(=O)N(Cc1cnc3nc(C4CC4)n(C)c3n1)[C@H](CC(C)(C)C)CO2 [Compound I-141]

Same assay, conditions: with 44 nM potentiator and 18 μM Tezacaftor, 20% human serum

D act. at 1 μM (%), +++ (+++ is >60%):
Cc1cccc(C)c1-c1cc2nc(n1)NS(=O)(=O)c1cccc(c1)C(=O)N(Cc1cnc3oc(C(C)(C)C)cc3n1)[C@H](CC1CCCC1)CO2 [IV-8]
CCc1c2nc(nc1-c1c(C)cccc1C)NS(=O)(=O)c1cccc(c1)C(=O)N(Cc1cnc3oc(C(C)(C)C)cc3n1)[C@H](COC(C)C)CO2 [IV-3]
Cc1cccc(C)c1-c1cc2nc(n1)NS(=O)(=O)c1cccc(c1)C(=O)N(Cc1cnc3oc(C(C)(C)C)cc3n1)[C@H](CC(C)C)CO2 [IV-6]
